# Columns and labels:
# [1] = HCV replicon assay, cell viability (CytoTox-1); format: cell-based; conditions: human, Huh7 hepatoma cells containing a subgenomic HCV replicon, In vitro HCV replicon assay, post-infection, read-out: CC50 (concentration decreasing cell viability by 50%)
# Description: (§1) Stable HCV replicons of different genotypes may be used for anti-HCV evaluation. We used the subgenomic HCV replicons of genotype 1a (H77 strain), 1b (Con1 strain), and 2a (JFH-1 strain), which are Huh7 human hepatoma cell lines that contains an HCV replicon.
# Briefly, the replicon cells were plated at 5,000 cells/well into 96-well plates that were dedicated for the analysis of cell numbers (cytotoxicity) or antiviral activity. On the following day, samples were diluted with assay media and added to the appropriate wells. Cells were processed 72 hours later when the cells were still sub-confluent. For the luciferase endpoint assay, HCV replicon levels were assessed as replicon-derived Luc activity. The concentration of drug that reduced cell viability was assessed by the fluorometric CytoTox-1 cell proliferation assay (Promega), (expressed as cell numbers). For the qRT-PCR/TaqMan assay, total RNA was extracted from the replicon cells using RNeasy 96 kit (Qiagen) according to the manufacturer's protocol. Real-time RTPCR/TaqMan assays were performed to measure copy numbers of the replicon RNA and cellular ribosomal RNA. […]
# [2] = system: HCV replicon; assay: HCV replicon assay (antiviral activity, luciferase endpoint); format: cell-based, hepatitis C virus
# Description: as §1
# The HCV replicon antiviral evaluation assay examined the effects of compounds at six serial dilutions. Human interferon alpha-2b (rIFNα-2b) and/or Sofosbuvir were included in each run as a positive control compound.
# Briefly, the replicon cells were plated at 5,000 cells/well into 96-well plates that were dedicated for the analysis of cell numbers (cytotoxicity) or antiviral activity. On the following day, samples were diluted with assay media and added to the appropriate wells. Cells were processed 72 hours later when the cells were still sub-confluent. For the luciferase endpoint assay, HCV replicon levels were assessed as replicon-derived Luc activity. The concentration of drug that reduced cell viability was assessed by the fluorometric CytoTox-1 cell proliferation assay (Promega), (expressed as cell numbers). For the qRT-PCR/TaqMan assay, total RNA was extracted from the replicon cells using RNeasy 96 kit (Qiagen) according to the manufacturer's protocol. Real-time RTPCR/TaqMan assays were performed to measure copy numbers of the replicon RNA and cellular ribosomal RNA. Where applicable EC50 (concentration inhibiting HCV replicon by 50%), EC90 (concentration inhibiting HCV replicon by 90%), CC50 (concentration decreasing cell viability by 50%), CC90 (concentration decreasing cell viability by 90%) and SI (selectivity indices: CC50/EC50 and CC90/EC90) values were derived.
# [3] = in vitro; format: cell-based; conditions: human
# Description: (§2) Huh7.5 cells were grown in Dulbecco's modified essential media (DMEM), 10%0/fetal bovine serum (FBS), 1% penicillin-streptomycin (pen-strep), 1% Non-essential amino acids (NEAA) in a 5% CO2 incubator at 37° C. Huh7.5 cells were seeded at 1×10^4 cells per well into 96-well plates according to Southern Research Institute standard format. Test articles were serially diluted with DMEM plus 5% FBS. The diluted compound in the amount of […] was mixed with equal volume of cell culture-derived HCV (HCVcc), then applied to appropriate wells in the plate. Human interferon alpha-2b (rIFNα-2b) and/or Sofosbuvir were included as a positive control. After 72 hr incubation at 37° C., the cells were lysed for measurement of luciferase activity using Renilla Luciferase Assay System (Promega) according to manufacturer's instruction. The number of cells in each well were determined by CytoTox-1 reagent (Promega). Test articles were tested at 6 serial dilutions in triplicate to derive, if applicable, EC50 and EC90 (concentration inhibiting HCVcc infectivity by 50% and 90%, respectively), CC50 (concentration decreasing cell viability by 50%) and SI (selectivity index: CC50/EC50) values (Table 1).
# [4] = system: cell culture-derived HCV (HCVcc); assay: microbe, parasite or virus in culture; format: cell-based, hepatitis C virus
# Description: as §2
structure (smiles),measurement,setting,value
"COC(=O)C1=C(C)NC(C)=C(C(=O)OC(C)C)C1c1cccc2nonc12 (centres unmarked) [Isradipine, isradipine]",CC50 at 72 h,[1],50.8 µM
same,anti-Hepatitis C activity (in words),[2]; HCV replicon assay,significant anti-Hepatitis C activity
same,EC50,"[2]; Hepatitis C virus, GT1B, 72 h, read-out: EC50 (concentration inhibiting HCV replicon by 50%)",51.4 µM
same,Selectivity index (CC50/EC50),"[2]; In vitro HCV replicon assay, post-infection",0.99
same,CC50 at 72 h,[3],51.2 µM
same,EC50,"[4]; Hepatitis C virus, Huh7.5, 72 h, read-out: EC50 (concentration inhibiting HCVcc infectivity by 50%)",12.6 µM
same,Selectivity index (CC50/EC50),"[4]; In vitro HCV cc assay, pre-infection",4.07
same,anti-Hepatitis C activity (in words),[4]; hepatitis C viral infectivity assay,significant anti-Hepatitis C activity
